pEC50: −log10 of the molar value.
Molecular target: F508del-CFTR (Homo sapiens, UniProt P13569, DEL508-508)
Test: HS-YFP iodide-influx fluorescence quenching assay, […] h incubation, Hill fit
Format: cell-based
Settings: read-out: half-effective concentration

Chain of F508del-CFTR (P13569 with tags, fused parts or gaps DEL508-508): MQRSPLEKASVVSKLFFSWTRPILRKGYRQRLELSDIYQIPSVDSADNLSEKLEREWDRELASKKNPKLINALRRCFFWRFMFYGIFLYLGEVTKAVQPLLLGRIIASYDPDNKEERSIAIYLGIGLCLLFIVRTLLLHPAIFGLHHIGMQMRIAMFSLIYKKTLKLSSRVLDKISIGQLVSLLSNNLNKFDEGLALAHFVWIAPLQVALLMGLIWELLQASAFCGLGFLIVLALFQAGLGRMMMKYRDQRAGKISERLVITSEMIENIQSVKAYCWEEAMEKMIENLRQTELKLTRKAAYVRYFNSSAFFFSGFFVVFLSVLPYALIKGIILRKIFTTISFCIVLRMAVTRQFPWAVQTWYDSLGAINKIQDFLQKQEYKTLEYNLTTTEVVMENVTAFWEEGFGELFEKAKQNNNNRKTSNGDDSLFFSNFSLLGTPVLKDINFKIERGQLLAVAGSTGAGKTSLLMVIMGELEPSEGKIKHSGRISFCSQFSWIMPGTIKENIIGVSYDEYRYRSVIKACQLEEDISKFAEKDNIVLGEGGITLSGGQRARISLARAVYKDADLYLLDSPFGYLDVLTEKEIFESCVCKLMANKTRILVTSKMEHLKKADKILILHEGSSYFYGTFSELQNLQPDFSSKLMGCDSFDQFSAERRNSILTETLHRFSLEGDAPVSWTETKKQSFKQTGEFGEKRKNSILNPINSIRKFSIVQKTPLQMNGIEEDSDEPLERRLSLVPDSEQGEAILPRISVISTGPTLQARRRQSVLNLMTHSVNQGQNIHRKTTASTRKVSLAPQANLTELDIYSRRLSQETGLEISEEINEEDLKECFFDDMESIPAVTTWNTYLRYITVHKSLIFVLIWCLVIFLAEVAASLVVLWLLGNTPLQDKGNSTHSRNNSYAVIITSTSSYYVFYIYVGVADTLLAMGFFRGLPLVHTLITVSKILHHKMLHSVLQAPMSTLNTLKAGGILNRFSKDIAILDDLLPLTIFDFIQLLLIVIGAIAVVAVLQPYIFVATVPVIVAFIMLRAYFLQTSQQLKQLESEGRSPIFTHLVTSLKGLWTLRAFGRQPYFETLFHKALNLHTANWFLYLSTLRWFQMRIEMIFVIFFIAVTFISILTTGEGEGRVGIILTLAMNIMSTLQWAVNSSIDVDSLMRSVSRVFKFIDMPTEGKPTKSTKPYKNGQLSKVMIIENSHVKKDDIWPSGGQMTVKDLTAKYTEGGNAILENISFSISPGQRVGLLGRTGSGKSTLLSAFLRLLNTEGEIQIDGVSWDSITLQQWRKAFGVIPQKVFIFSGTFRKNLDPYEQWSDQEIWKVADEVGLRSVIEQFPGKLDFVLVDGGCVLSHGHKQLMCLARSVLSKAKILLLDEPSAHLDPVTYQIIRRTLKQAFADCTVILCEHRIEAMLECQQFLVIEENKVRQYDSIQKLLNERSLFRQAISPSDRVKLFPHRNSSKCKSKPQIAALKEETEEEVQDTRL

pEC50: 5.30
Compound: COc1ccc(Cl)cc1NC(=O)c1cc2c([nH]1)-c1nc(NC(=O)C(C)(C)C)sc1CC2 [compound 44, N-(5-Chloro-2-Methoxyphenyl)-2-[(2,2-Dimethylpropanoyl)Amino]-5,8-Dihydro-4H-[1,3]Thiazolo[5,4-g]Indole-7-Carboxamide]
